Assay results from BindingDB's records for doi:10.3109/14756369809035823 (Orstom, 1998).
Values joined by “and” are separate entries in the source; they are usually repeats but may differ in a detail not shown here. Equal entries are not always repeated.

These compounds were tested against Trypanothione reductase (Crithidia fasciculata, UniProt P39040) (assay: Inhibition Assay). Settings: pH 7.8; 25 °C.
From the text: Crithidia fasciculata trypanothione reductase (cfTR) was purifed from E.coli using the expression system. The activity of the cfTR was observed from the rate of oxidation of the co-substrate NADPH to NADP+ as measured by a decrease in absorbance at 340nm.

Trypanothione reductase, sequence (P39040 whole entry): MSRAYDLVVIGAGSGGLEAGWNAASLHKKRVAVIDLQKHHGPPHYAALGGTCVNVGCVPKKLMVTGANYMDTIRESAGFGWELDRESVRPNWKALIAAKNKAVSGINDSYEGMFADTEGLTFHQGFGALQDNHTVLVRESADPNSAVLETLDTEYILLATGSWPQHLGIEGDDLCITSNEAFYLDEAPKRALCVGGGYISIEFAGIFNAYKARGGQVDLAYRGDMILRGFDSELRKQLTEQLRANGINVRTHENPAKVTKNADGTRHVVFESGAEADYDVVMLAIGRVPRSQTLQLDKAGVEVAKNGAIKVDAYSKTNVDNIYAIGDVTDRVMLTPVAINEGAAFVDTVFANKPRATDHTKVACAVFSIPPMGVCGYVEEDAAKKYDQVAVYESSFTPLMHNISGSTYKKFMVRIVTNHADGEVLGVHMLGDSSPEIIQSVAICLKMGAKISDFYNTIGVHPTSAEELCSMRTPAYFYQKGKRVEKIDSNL

Going from `COc1ccc2cc1Oc1ccc(cc1)C[C@H]1c3c(cc(OC)c(O)c3Oc3cc4c(cc3OC)CCN(C)[C@@H]4C2)CCN1C` to `COc1ccc2cc1Oc1ccc(cc1)C[C@H]1c3cc(c(OC)cc3CCN1C)Oc1c(O)c(OC)cc3c1[C@@H](C2)N(C)CC3` [Limacine (R,R)], the IC50 rises from 55 µM to 90 µM (1.6-fold). The first is the more potent here.

`COc1cc2c3cc1Oc1c(O)c(OC)cc4c1[C@H](Cc1ccc(OC)c(c1)-c1cc(ccc1O)C[C@H]3N(C)CC2)N(C)CC4` and `COc1cc2c3cc1Oc1cc(ccc1O)C[C@@H]1c4c(cc(OC)c(O)c4Oc4ccc(cc4)C[C@H]3N(C)CC2)CCN1C` [(-)-BEBEERINE] are the same in IC50: 60 µM for the first, 60 µM for the second.

`COc1cc2c3cc1Oc1c(O)c(OC)cc4c1[C@H](Cc1ccc(cc1)Oc1cc(ccc1O)C[C@H]3NCC2)N(C)CC4` (racemic) [Daphnoline (R,S)] and `COc1ccc2cc1Oc1ccc(cc1)C[C@H]1c3c(cc(O)c(OC)c3Oc3cc4c(cc3OC)CCN(C)[C@@H]4C2)CCN1C` [Gyrocarpine (S,R)] are within 1.5-fold of each other in IC50: 50 µM for the first, 58 µM for the second.

Compared with `COc1ccc2cc1Oc1ccc(cc1)C[C@H]1c3c(cc4c(c3Oc3cc5c(cc3OC)CCN(C)[C@H]5C2)OCO4)CCN1C` [Cepharanthine], `COc1cc2c3c(c1OC)Oc1ccc(cc1)C[C@@H]1c4c(cc(OC)c(OC)c4Oc4ccc(cc4)C[C@H]3N(C)CC2)CCN1C` [Cycleanine (R,R)] is 20-fold higher in IC50: 15 µM for the first, 303 µM for the second.

`COc1cc2c(cc1O)[C@@H](Cc1ccc(Oc3cc(C[C@H]4NCCc5cc(OC)c(O)cc54)ccc3O)cc1)NCC2` [Lindoldhamine (R,R)] showed an IC50 of 27 µM.

In the case of `COc1ccc2cc1Oc1ccc(cc1)C[C@H]1c3cc(c(OC)cc3CCN1C)Oc1c(OC)c(OC)cc3c1[C@@H](C2)N(C)CC3`, the IC50 is reported as 122 µM and 235 µM.
